2 molecules from US8278480B2, “Salts, aqueous liquid compositions containing salts of S-(+)-abscisic acid and methods of their preparation” (Valent BioSciences Corporation, priority 2008, dated 2012) can be followed below.

Assay [1] concerns tomato leaf transpiration. The experiment in a line: Tomato leaf transpiration inhibition after foliar spray (LI-1600 porometer). The class given is in vivo, Tomato (variety: Rutgers). As for the experimental part: (§1) Preparation of plant specimens for use in the treatment studies of the EXAMPLES that follow was carried out as follows. Tomato (variety: Rutgers) seeds were sown in an 18-cell flat filled with Promix PGX (available from Premier Horticulture Inc., Quakertown Pa.) and grown for 3 weeks to allow for germination and initial growth. Plants were then transplanted into pots (18 cm in diameter and 18 cm in height), filled with Promix BX (available from Premier Horticulture Inc., Quakertown Pa.), and grown for one or two more weeks before treatment, depending on temperature and available light. Plants received daily irrigation and weekly fertilizer (1 g/L all purpose fertilizer 20-20-20, available from The Scotts Company, Marysville, Ohio).
(§2) All treatment solutions were made up with distilled water. The (S)-(+)-abscisic acid (95% active ingredient) is available from Lomon BioTechnology Co., Ltd. (Shichuan, China). The prior art aqueous solution composition of the ammonium salt of (S)-(+)-abscisic acid as prepared in Example 11 above was used as a positive treatment control for most of the studies.
(§3) All experiments were conducted using a randomized complete block experimental design. Solutions of (S)-(+)-abscisic acid and blank treatments (plain water) were applied by spray to the aerial parts of the tomato plants at the rate of 24 mL per 6 plants. Plants were then placed in a transparent chamber with humidity controlled within the range of 40 to 60% relative humidity. Leaf transpiration rates were measured at 1, 2, 3, 4 and 7 days after treatment. Measurements were conducted using a LI-1600 Steady State Porometer (LI-Cor, Lincoln, Nebr.). Each day the transpiration rate of the plants of each treatment group was normalized to a percentage of the transpiration rate of untreated plants (plants sprayed with water only) in order to control for day-to-day variability in plant status caused by changes of environmental conditions such as light intensity and temperature. Data for each plant was also averaged over a 3-day period to balance the short term and long term effect of (S)-(+)-abscisic acid on tomato leaf transpiration as well as to reduce experimental variability.
The regression equation of each (S)-(+)-abscisic acid salt as well as abscisic acid concentrations for 50% inhibition of transpiration were calculated. The relative potency of two ABA salts is the reciprocal of the ratio of (S)-(+)-abscisic acid concentration required for 50% transpiration inhibition for each composition.

A further assay has as its system tomato plant height. Put plainly: Tomato plant height 7 days after treatment (growth suppression). It counts as in vivo, Tomato (variety: Rutgers). The conditions noted are these: foliar spray. As for the experimental part: as §1, §2
as §3, with “variability. It is important to note that no phytotoxicity was observed on any of the plants treated with the compositions of the present invention.” for “variability.”
In this experiment, the fresh weights of the aerial parts of the tomato plants and their heights were also measured at the end of the experiment, 7 days after treatments were applied, in order to assess the relative growth suppressing activity of the compositions.

Where [2] appears, read: (S)-(+)-abscisic acid dose 0.3 mg, foliar spray.
[3] abbreviates: (S)-(+)-abscisic acid dose 1 mg, foliar spray.
[4] abbreviates: (S)-(+)-abscisic acid dose 3 mg, foliar spray.
The mark [5] stands for this setting: (S)-(+)-abscisic acid dose 10 mg, foliar spray.
Setting [6] is: 250 ppm (1 mg) (S)-(+)-abscisic acid, additives as in label.

Several values for one entry are separate records, joined by “and”; a condition that tells them apart may be missing. Identical values can stand only once. Counter-ions that a name gives are not always drawn.

Regarding `CC1=CC(=O)CC(C)(C)[C@@]1(O)/C=C/C(C)=C\C(=O)O.CN(C)C(=N)N(C)C` [Example 6, Tetramethylguanidinium Salt of (S)-(+)-Abscisic Acid], the “Transpiration rate (% of control), Average of 3 days after treatment” value was 71 % of control in assay [1] (setting [2]), 61 % of control in assay [1] (setting [3]), 42 % of control in assay [1] (setting [4]) and 31 % of control in assay [1] (setting [5]). Further, in assay [1] (foliar spray, 250 ppm (S)-(+)-abscisic acid (1 mg), additives as in label, 7-day average), the “Transpiration rate (% of control), 7-Day Average” value is 70.8 % of control and 76.2 % of control and 78.7 % of control. Moreover, the “Transpiration rate (% of control), 1 day after treatment” value in assay [1] (foliar spray, 250 ppm (S)-(+)-abscisic acid (1 mg), additives as in label, day 1) was 51.0 % of control and 51.9 % of control and 47.8 % of control. Further, the “Transpiration rate (% of control), 2 days after treatment” value in assay [1] (foliar spray, 250 ppm (S)-(+)-abscisic acid (1 mg), additives as in label, day 2) was 61.3 % of control and 64.3 % of control and 69.0 % of control. For the same molecule, in assay [1] (foliar spray, 250 ppm (S)-(+)-abscisic acid (1 mg), additives as in label, day 3), the “Transpiration rate (% of control), 3 days after treatment” value was 71.2 % of control and 75.6 % of control and 84.5 % of control. Further, the “Transpiration rate (% of control), 4 days after treatment” value in assay [1] (foliar spray, 250 ppm (S)-(+)-abscisic acid (1 mg), additives as in label, day 4) was 79.9 % of control and 89.9 % of control and 93.2 % of control. The “Transpiration rate (% of control), 7 days after treatment” value in assay [1] (foliar spray, 250 ppm (S)-(+)-abscisic acid (1 mg), additives as in label, day 7) is 90.3 % of control and 99.1 % of control and 99.0 % of control. Also, in assay [1] (from linear regression of 3-day average transpiration rate on log dose), the “ABA dose to achieve 50% inhibition of transpiration” value is 1.93 mg. The “Plant height (cm) 7 days after treatment” value in the assay on tomato plant height (setting [6]) amounted to 30.1 cm.

Turning to `CC1=CC(=O)CC(C)(C)[C@@]1(O)/C=C/C(C)=C\C(=O)O` [Example 11, Ammonium Salt of (S)-(+)-Abscisic Acid, reference compound], the “Transpiration rate (% of control), Average of 3 days after treatment” value in assay [1] (setting [2]) was 82 % of control and 80 % of control and 77 % of control and 95 % of control and 90 % of control and 81 % of control and 88 % of control; in assay [1] (setting [3]), 72 % of control and 69 % of control and 65 % of control and 78 % of control and 70 % of control and 77 % of control and 71 % of control; in assay [1] (setting [4]), 60 % of control and 58 % of control and 55 % of control and 67 % of control and 59 % of control and 62 % of control and 57 % of control; in assay [1] (setting [5]), 50 % of control and 48 % of control and 44 % of control and 53 % of control and 51 % of control and 52 % of control and 55 % of control and 49 % of control. For the same molecule, the “Transpiration rate (% of control), 4 Day Average” value in assay [1] (foliar spray, 250 ppm (S)-(+)-abscisic acid (1 mg), additives as in label, 4-day average) was 75.4 % of control. Besides, the “Transpiration rate (% of control), 9-Day Average” value in assay [1] (foliar spray, 250 ppm (S)-(+)-abscisic acid (1 mg), additives as in label, 9-day average) was 87.3 % of control. In assay [1] (foliar spray, 250 ppm (S)-(+)-abscisic acid (1 mg), additives as in label, day 9), the “Transpiration rate (% of control), 9 days after treatment” value is given as 100.8 % of control. The “Plant height (cm) 7 days after treatment” value with tomato plant height (75 ppm (0.3 mg) (S)-(+)-abscisic acid) was 19.9 cm; with tomato plant height (setting [6]) it was 19.8 cm and 32.1 cm; in the assay with tomato plant height (750 ppm (3 mg) (S)-(+)-abscisic acid) it was 18.6 cm; with tomato plant height (2500 ppm (10 mg) (S)-(+)-abscisic acid), 18.6 cm.
